The record followed here is patent US20240299492A1, “COMBINATION THERAPIES WITH SIRP ALPHA-BASED CHIMERIC PROTEINS” (Shattuck Labs, Inc., priority 2021, published 2024).

Assay [1] deals with CT26 tumor cells. Put plainly: In vivo anti-tumor efficacy, CT26 colorectal carcinoma mouse allograft model. More on the design: species or system BALB/C mice. Here is the method:
The efficacy of the SIRPα-Fc-CD40L chimeric protein was evaluated in combination with a spindle toxin. Towards that, the ability of paclitaxel and chimeric proteins to target and reduce tumor volume in vivo was determined. Briefly, BALB/C mice were inoculated with 500,000 CT26 tumor cells. When tumor volumes were approximately 50 to 60 mm^3 (day 0), the mice were randomly distributed in the following treatment groups: (1) vehicle only control, (2) 300 μg of the SIRPα-Fc-CD40L chimeric protein alone, (3) 24 mg/kg paclitaxel alone, and (4) a combination 300 μg of the SIRPα-Fc-CD40L chimeric protein and 24 mg/kg paclitaxel. The mice were dosed on days 0, 3 and 6 via intraperitoneal injections. Tumors were measured with electronic calipers on day 14 and plotted using the GraphPad Prism software.
The efficacy of the SIRPα-Fc-CD40L chimeric protein was evaluated in combination with an antimetabolite or. Towards that, the ability of 5-fluorouracil and chimeric proteins to target and reduce tumor volume in vivo was determined. Briefly, BALB/C mice were inoculated with 500,000 CT26 tumor cells. When tumor volumes were approximately 50 to 60 mm^3 (day 0), the mice were randomly distributed in the following treatment groups: (1) vehicle only control, (2) 300 μg of the SIRPα-Fc-CD40L chimeric protein alone, (3) 20 mg/kg 5-fluorouracil alone, and (4) a combination 300 μg of the SIRPα-Fc-CD40L chimeric protein and 20 mg/kg 5-fluorouracil. The mice were dosed via intraperitoneal injections as follows: the SIRPα-Fc-CD40L chimeric protein was administered on days 0, 3 and 6; and 5-fluorouracil was administered on days 0, 2 and 4. Tumors were measured with electronic calipers on day 11 and plotted using the GraphPad Prism software.
The efficacy of the SIRPα-Fc-CD40L chimeric protein was evaluated in combination with a topoisomerase I inhibitor. Towards that, the ability of irinotecan and chimeric proteins to target and reduce tumor volume in vivo was determined. Briefly, BALB/C mice were inoculated with 500,000 CT26 tumor cells. When tumor volumes were approximately 50 to 60 mm^3 (day 0), the mice were randomly distributed in the following treatment groups: (1) vehicle only control, (2) 300 μg of the SIRPα-Fc-CD40L chimeric protein alone, (3) 25 mg/kg irinotecan alone, and (4) a combination 300 μg of the SIRPα-Fc-CD40L chimeric protein and 25 mg/kg irinotecan. The mice were dosed on days 0 and 2 via intraperitoneal injections. Tumors were measured with electronic calipers on day 4 and plotted using the GraphPad Prism software.
The efficacy of the SIRPα-Fc-CD40L chimeric protein was evaluated in combination with an anthracycline. Towards that, the ability of doxorubicin and chimeric proteins to target and reduce tumor volume in vivo was determined. Briefly, BALB/C mice were inoculated with 500,000 CT26 tumor cells. When tumor volumes were approximately 50 to 60 mm^3 (day 0), the mice were randomly distributed in the following treatment groups: (1) vehicle only control, (2) 300 μg of the SIRPα-Fc-CD40L chimeric protein alone, (3) 8 mg/kg doxorubicin alone, and (4) a combination 300 μg of the SIRPα-Fc-CD40L chimeric protein and 8 mg/kg doxorubicin. The mice were dosed with the SIRPα-Fc-CD40L chimeric protein on days 0, 3 and 6 via intraperitoneal injections, and with doxorubicin thrice through the tail vein. Tumors were measured with electronic calipers on day 7 and plotted using the GraphPad Prism software.
The efficacy of the SIRPα-Fc-CD40L chimeric protein was evaluated in combination with a platinum compound. Towards that, the ability of cisplatin and chimeric proteins to target and reduce tumor volume in vivo was determined. Briefly, BALB/C mice were inoculated with 500,000 CT26 tumor cells. […]

For assay [2], the system named is ARD1 human multiple myeloma cells. The experiment in a line: Phagocytosis of ARD1 cells by human macrophages (flow cytometry): elotuzumab and/or SIRPα-Fc-CD40L. The following applies: 1 μg/ml elotuzumab and/or SIRPα-Fc-CD40L (10 μg/ml alone; 10 pg/ml in the combination), 4 hours; combination p<0.05 vs vehicle; FIG. 8. The assay is classed as cell-based. Here is the method: Briefly, the ARD1 human multiple myeloma cells were labeled with a green fluorescent tracker and co-cultured with human macrophages and treated with (1) vehicle alone control, (2) 10 μg/ml of the SIRPα-Fc-CD40L chimeric protein, (3) 1 μg/ml of elotuzumab (an antibody-dependent cellular phagocytosis (ADCP)-proficient anti-SLAMF7 antibody), or (4) 1 μg/ml of elotuzumab and 10 pg/ml of the SIRPα-Fc-CD40L chimeric protein and incubated at 37° C. in the presence of 5% CO2 for 4 hours. After this incubation, the cells were harvested and treated with an anti-CD11b antibody (a macrophage marker) and were analyzed using flow cytometry. Positive phagocytosis was determined by the overlap in signals of tumor (the green fluorescent tracker) and macrophage (anti-CD11b antibody staining). A phagocytosis index was calculated by setting the maximum phagocytosis value to 1, and then normalizing all other replicates accordingly. The phagocytosis index was plotted for the indicated treatments.

Assay [3] concerns ARD1 human multiple myeloma (MM) cells. The experiment in a line: Phagocytosis of ARD1 cells by human macrophages (flow cytometry): bortezomib and/or SIRPα-Fc-CD40L. Particulars: 1 pM bortezomib overnight and/or SIRPα-Fc-CD40L for 4 hours; combination p<0.0001 vs control; FIG. 3B. The assay is classed as cell-based. Here is the method:
(§1) In another experiment, the ARD1 human multiple myeloma (MM) cells were labeled with a green fluorescent tracker and treated with vehicle alone control or 1 pM bortezomib overnight. The following day, the tumor cells were washed in PBS and then co-cultured with human macrophages with or without the SIRPα-Fc-CD40L chimeric protein for 4 hours at 37° C. in the presence of 5% CO2. After this incubation, the cells were harvested and treated with an anti-CD11b antibody (a macrophage marker) and were analyzed using flow cytometry. Positive phagocytosis was determined by the overlap in signals of tumor (the green fluorescent tracker) and macrophage (anti-CD11b antibody staining). A phagocytosis index was calculated by setting the maximum phagocytosis value to 1, and then normalizing all other replicates accordingly. The phagocytosis index was plotted for the indicated treatments.

Assay [4] deals with MM1R human multiple myeloma (MM) cells. Put plainly: Phagocytosis of MM1R cells by human macrophages (flow cytometry): bortezomib and/or SIRPα-Fc-CD40L. It is filed as cell-based. The following applies: 1 pM bortezomib overnight and/or SIRPα-Fc-CD40L for 4 hours; combination p<0.0001 vs control; FIG. 3A. Here is the method: as §1, with “Briefly,” for “In another experiment,”, “MM1R” for “ARD1”
On the technique in general: Flow cytometry measures light scatter and fluorescence of single cells or particles in a stream.

In assay [5] the test system is ARD1 human multiple myeloma (MM) cells. Put plainly: Phagocytosis of ARD1 cells by human macrophages (IncuCyte phRodo Red imaging): daratumumab and/or SIRPα-Fc-CD40L. The following applies: 1 μg/ml daratumumab and/or 10 μg/ml SIRPα-Fc-CD40L, 2 hours, combination p<0.0001 vs vehicle, FIG. 6. It is filed as cell-based. As for the experimental part:
Briefly, the ARD1 human multiple myeloma (MM) cells were labeled the IncuCyte phRodo Red cell labeling kit and co-cultured with human macrophages and treated with (1) vehicle alone control, (2) 10 μg/ml of the SIRPα-Fc-CD40L chimeric protein, (3) 1 μg/ml of daratumumab (an antibody-dependent cellular phagocytosis (ADCP)-proficient anti-CD38 antibody), or (4) 1 μg/ml of an daratumumab and 10 μg/ml of the SIRPα-Fc-CD40L chimeric protein and incubated at 37° C. in the presence of 5% CO2 for 2 hours. Cultures were imaged using the IncuCyte time-lapse microscopy system, and positive phagocytosis was determined by an increase in red fluorescent intensity which occurs when the phRodo Red labeled tumor cell is internalized into the acidic macrophage phagosome. A phagocytosis index was calculated by setting the maximum phagocytosis value to 1, and then normalizing all other replicates accordingly. The phagocytosis index was plotted for the indicated treatments.

The subject of assay [6] is KMS12B multiple myeloma cells. Put plainly: Phagocytosis of KMS12B cells by M1 macrophages with activated T cells (flow cytometry): pomalidomide with or without SIRPα-Fc-CD40L. It is filed as cell-based, human. Particulars: 10 μM pomalidomide, CD3/CD28 activated T cells, M1 polarized macrophages, 4 hours; FIG. 7. Here is the method:
Briefly, CD14+ monocytes were isolated from human donor PBMCs and cultured with m-CSF (100 ng/ml) for 6 days. On day 6, IFNγ (100 ng/ml) and LPS (10 ng/ml) were added to the cells for an additional 24 hours, generating M1 polarized macrophages. On day 5 of the macrophage differentiation, another vial of PBMCs from the same human donor was thawed, and CD3 T cells were isolated using a magnetic bead isolation kit. These T cells were activated for 2 days with CD3/CD28 T cell magnetic activation beads. On day 7 when both the macrophages and T cells were activated and ready, they were combined with KMS12B multiple myeloma cells, which were labeled with a green fluorescent tracker, with 10 μM pomalidomide and with or without 50 μg/ml of the SIPRα-Fc-CD40L chimeric protein. KMS12B cells incubated with the macrophages and 10 μM pomalidomide, without T cells, were used as a negative control. This coculture was incubated for 4 hours at 37° C., 5% CO2. After this incubation, the cells were harvested and treated with an anti-CD11b antibody (a macrophage marker) and were analyzed using flow cytometry. Positive phagocytosis was determined by the overlap in signals of tumor (the green fluorescent tracker) and macrophage (anti-CD11b antibody staining). A phagocytosis index was calculated by setting the maximum phagocytosis value to 1, and then normalizing all other replicates accordingly. […]

For `CCc1c2c(nc3ccc(OC(=O)N4CCC(N5CCCCC5)CC4)cc13)-c1cc3c(c(=O)n1C2)COC(=O)[C@]3(O)CC` [irinotecan], in assay [1] (day 4, 300 μg SIRPα-Fc-CD40L and/or 25 mg/kg irinotecan, intraperitoneal, days 0 and 2, FIG. 10C), the tumor size entry is “reduction in tumor size”.
As to `CC(=O)O[C@H]1C(=O)[C@@]2(C)[C@H]([C@H](OC(=O)c3ccccc3)[C@]3(O)C[C@H](OC(=O)[C@H](O)[C@@H](NC(=O)c4ccccc4)c4ccccc4)C(C)=C1C3(C)C)[C@]1(OC(C)=O)CO[C@@H]1C[C@@H]2O` [paclitaxel], the tumor size entry in assay [1] (day 14, 300 μg SIRPα-Fc-CD40L and/or 24 mg/kg paclitaxel, intraperitoneal, days 0, 3 and 6, FIG. 10A) was “reduction in tumor size”.
For `O=c1[nH]cc(F)c(=O)[nH]1` [5-fluorouracil], in assay [1] (day 11, 300 μg SIRPα-Fc-CD40L (days 0, 3, 6) and/or 20 mg/kg 5-fluorouracil (days 0, 2, 4), intraperitoneal, combination vs vehicle p<0.01, vs 5-fluorouracil alone p<0.05, FIG. 10B), the tumor size entry is recorded as “reduction in tumor size”.
Take “elotuzumab: an antibody-dependent cellular phagocytosis (ADCP)-proficient anti-SLAMF7 antibody”: the “level of phagocytosis (phagocytosis index) compared to the vehicle only-treated ARD1 cells” value in assay [2] is given as “increased level of phagocytosis”.
In the case of `COc1cccc2c1C(=O)c1c(O)c3c(c(O)c1C2=O)C[C@@](O)(C(=O)CO)C[C@@H]3O[C@H]1C[C@H](N)[C@H](O)[C@H](C)O1` [doxorubicin], the tumor size result in assay [1] (day 7, 300 μg SIRPα-Fc-CD40L (intraperitoneal, days 0, 3, 6) and/or 8 mg/kg doxorubicin (thrice, tail vein), FIG. 10D) was “reduction in tumor size”.
Consider `CC(C)C[C@H](NC(=O)[C@H](Cc1ccccc1)NC(=O)c1cnccn1)B(O)O` [bortezomib], for which the “level of phagocytosis (phagocytosis index) compared to the control ARD1 cells” value in assay [3] is recorded as “increased level of phagocytosis”. The “level of phagocytosis (phagocytosis index) compared to the control MM1R cells” value in assay [4] is “increased level of phagocytosis”.
Consider “daratumumab: an antibody-dependent cellular phagocytosis (ADCP)-proficient anti-CD38 antibody”, for which the “level of phagocytosis (phagocytosis index) compared to the vehicle only-treated ARD1 cells” value in assay [5] is given as “increased level of phagocytosis”.
Take `N.N.[Cl][Pt][Cl]` [cisplatin]: in assay [1] (day 4, 300 μg SIRPα-Fc-CD40L (days 0 and 3) and/or 200 μg cisplatin (day 0), intraperitoneal, FIG. 10E), the tumor size entry is recorded as “reduction in tumor size”.
For `O=C1[O][Pt]2([NH][C@@H]3CCCC[C@H]3[NH]2)[O]C1=O` [oxaliplatin], the tumor size result in assay [1] (day 4, 300 μg SIRPα-Fc-CD40L (days 0 and 3) and/or 10 mg/kg oxaliplatin (day 0), intraperitoneal, FIG. 10F) is reported as “reduction in tumor size”.
As to `Nc1cccc2c1C(=O)N(C1CCC(=O)NC1=O)C2=O` (centres unmarked) [pomalidomide], the “phagocytosis of KMS12B cells incubated with T cells, macrophages and pomalidomide compared to incubation without T cells (negative control)” value in assay [6] is “increased phagocytosis”.
